From publication PMC11480954, “Molecular determinants of resurgent sodium currents mediated by Navβ4 peptide and A-type FHFs” (Frontiers in Molecular Neuroscience, 2024)

Key:
Nav1.8 F1710K [1] = assay: INaR, Nav1.8 mutant F1710K; type: cell-based, human; settings: 1 mM FHF4A peptide
Method: (§1) HEK293 cells and ND7/23 cells were grown under standard tissue culture conditions (5% CO2 and 37°C) in DMEM supplemented with 10% FBS, 1% penicillin and 1% streptomycin. Using Invitrogen Lipofectamine 2000, human Nav1.7 R1599P (rpNav1.7) and the mutant constructs were transiently co-transfected with Navβ1 and Navβ2 into HEK293 cells. The constructs human Nav1.8 and mutants were transiently co-transfected with FHF2B or FHF4A into ND7/23 cells. The lipofectamine-DNA mixture was added to the cell culture medium and left for 3 h after which the cells were washed with fresh medium. Cells with green fluorescent protein fluorescence were selected for whole-cell patch-clamp recordings 36–72 h after transfection.
Whole-cell voltage-clamp recordings were performed at room temperature (~21°C) using an EPC-10 amplifier and the Pulse program (HEKA Electronics). […]
INaR: INaR was elicited by repolarizing voltage steps from +20 to −80 mV for 100 ms (or 200 ms) in −5 mV increments, following a 20-ms depolarizing potential of +30 mV. […] The relative INaR in Nav1.7 and Nav1.8 was calculated by normalizing to the peak transient current elicited at −10 or 0 mV.

Nav1.8 F1710K [2] = assay: Gating properties, Nav1.8 mutant F1710K; type: cell-based, human
Method: as §1
(§2) Whole-cell voltage-clamp recordings were performed at room temperature (~21°C) using an EPC-10 amplifier and the Pulse program (HEKA Electronics). Fire-polished electrodes (0.7–1.0 MΩ) were fabricated from 1.7 mm capillary glass using a P-97 puller (Sutter Instruments), and the tips were coated with sticky wax (KerrLab) to reduce electrode capacitance and enable increased series resistance compensation. The pipette solution contained (in mM) 140 CsF, 1.1 EGTA, 10 NaCl, and 10 HEPES, pH 7.3. The bathing solution was (in mM) 130 mM NaCl, 30 mM TEA chloride, 1 mM MgCl2, 3 mM KCl, 1 mM CaCl2, 10 mM HEPES, and 10 mM d-glucose, pH 7.3 (adjusted with NaOH). […] The offset potential was zeroed before contacting the cell. After establishing the whole-cell recording configuration, the resting potential was held at −120 or −100 mV for 5 min to allow adequate equilibration between the micropipette solution and the cell interior. Linear leak subtraction, based on resistance estimates from four to five hyperpolarizing pulses applied before the depolarizing test potential, was used for all voltage clamp recordings. Membrane currents were usually filtered at 5 kHz and sampled at 20 kHz. […] Voltage errors were minimized using 80–95% series resistance compensation, and the capacitance artifact was canceled using the computer-controlled circuitry of the patch clamp amplifier. […] The concentration-dependent curves were fitted to a hill equation: Y = Bottom + (Top-Bottom)/(1 + 10^((LogEC50-X)*HillSlope)).
(§3) Families of sodium currents were induced by 50-ms depolarizing steps to various potentials ranging from −120 (or −100) to +40 mV in 5-mV increments. The conductance was calculated using the equation G(Nav) = I/(V - Vrev) in which I, V, and Vrev represent inward current value, membrane potential, and reversal potential, respectively.
(§4) Voltage dependence of steady-state inactivation was estimated using a standard double pulse protocol in which sodium currents were induced by a 50-ms depolarizing potential of 0 mV following a 500-ms prepulse at potentials that ranged from −150 to +10 mV with a 10-mV increment. Currents were plotted as a fraction of the maximum peak current. To obtain the midpoint voltages (V1/2) and slope factor (k), the curves of both steady-state activation and inactivation were fitted to a Boltzmann function.

Nav1.8 Y1717K = assay: Gating properties, Nav1.8 mutant Y1717K; type: cell-based, human
Method: as §1, §2, §3, §4

Nav1.8 = settings: ref Xiao et al., 2022; cited from earlier work
Description: Next, we investigated if FHF4A, another INaR mediator reported recently ([White et al., 2019]; [Xiao et al., 2022]), shares the receptor site in VGSCs with Navβ4 peptide. […] They consist of a long N-terminus, an FGF-like β-trefoil core, and a short C-terminus ([Goldfarb, 2005]). They display an intrinsic capability to generate INaR, to a varying extent, in Nav1.8 and Nav1.9.

Sequence: AAAIASGLIRQKRQAREQHW [FHF4A peptide, synthetic 20-residue peptide from FHF4A A2 – W21]
- average INaR amplitude at −15 mV, F1710K (Nav1.8 F1710K [1]; + FHF2B, ND7/23, n = 6, p < 0.0001 vs Nav1.8): 0.5% ± 0.1%
- decrease of INaR amplitude by F1710K (Nav1.8 F1710K [1]; −15 mV, vs Nav1.8): ninefold
- V1/2 of steady-state inactivation, F1710K vs Nav1.8 (Nav1.8 F1710K [2]; 1 mM FHF4A peptide): None of four lysine-mutations significantly changed the V1/2 value of steady-state inactivation
- Inactivation (V1/2), F1710K (Nav1.8 F1710K [2]; 1 mM FHF4A peptide, + FHF2B, ND7/23, n = 7): −41.1 ± 5.5 (7) mV
- Activation (V1/2), F1710K (Nav1.8 F1710K [2]; 1 mM FHF4A peptide, + FHF2B, ND7/23, n = 7, ***p < 0.0001): 19.9 ± 2.0*** (7) mV
- INaP, F1710K (Nav1.8 F1710K [2]; end of 50-ms pulse of +10 mV, normalized to peak transient current, 1 mM FHF4A peptide, n = 6, **p < 0.01): 0.8 ± 0.9^** (6) %
- positive shift of voltage dependence of activation by F1710K (Nav1.8 F1710K [2]; vs Nav1.8, 1 mM FHF4A peptide): 31.0 mV
- V1/2 of steady-state inactivation, Y1717K vs Nav1.8 (Nav1.8 Y1717K; 1 mM FHF4A peptide): None of four lysine-mutations significantly changed the V1/2 value of steady-state inactivation
- Inactivation (V1/2), Y1717K (Nav1.8 Y1717K; 1 mM FHF4A peptide, + FHF2B, ND7/23, n = 10): −38.4 ± 1.0 (10) mV
- Activation (V1/2), Y1717K (Nav1.8 Y1717K; 1 mM FHF4A peptide, + FHF2B, ND7/23, n = 10, ***p < 0.0001): 7.3 ± 1.5*** (10) mV
- INaP, Y1717K (Nav1.8 Y1717K; end of 50-ms pulse of +10 mV, normalized to peak transient current, 1 mM FHF4A peptide, n = 10): 5.4 ± 3.8 (10) %
- positive shift of voltage dependence of activation by Y1717K (Nav1.8 Y1717K; vs Nav1.8, 1 mM FHF4A peptide): 18.4 mV
- Nav1.8 INaR reconstitution by FHF4A A2 – W21 peptide (Nav1.8): could reconstitute the Nav1.8 INaR mediated by full-length FHF4A
